# Experiments:
# [1] = target: T1, DvH-FDH2 (Nitratidesulfovibrio vulgaris, UniProt Q728X0); assay: PES/DCPIP reduction at […] nm, inhibition of formate oxidation; type: biochemical; conditions: formate with PES/DCPIP; 50 mM Tris pH 8.0; with and without O2
# T1 construct: gene fdnG-2; heterodimer, W-bis-pyranopterin, Sec, four [4Fe-4S]; Strep-tag II at C-terminus of large subunit, kept; periplasmic, Tat signal peptide on large subunit; homologous expression in DvH JW2127 (all fdh loci deleted), strain CSR21271; aerobic purification; with Formate dehydrogenase, beta (small) subunit, iron-sulfur
# T1 sequence (Q728X0 36-1003): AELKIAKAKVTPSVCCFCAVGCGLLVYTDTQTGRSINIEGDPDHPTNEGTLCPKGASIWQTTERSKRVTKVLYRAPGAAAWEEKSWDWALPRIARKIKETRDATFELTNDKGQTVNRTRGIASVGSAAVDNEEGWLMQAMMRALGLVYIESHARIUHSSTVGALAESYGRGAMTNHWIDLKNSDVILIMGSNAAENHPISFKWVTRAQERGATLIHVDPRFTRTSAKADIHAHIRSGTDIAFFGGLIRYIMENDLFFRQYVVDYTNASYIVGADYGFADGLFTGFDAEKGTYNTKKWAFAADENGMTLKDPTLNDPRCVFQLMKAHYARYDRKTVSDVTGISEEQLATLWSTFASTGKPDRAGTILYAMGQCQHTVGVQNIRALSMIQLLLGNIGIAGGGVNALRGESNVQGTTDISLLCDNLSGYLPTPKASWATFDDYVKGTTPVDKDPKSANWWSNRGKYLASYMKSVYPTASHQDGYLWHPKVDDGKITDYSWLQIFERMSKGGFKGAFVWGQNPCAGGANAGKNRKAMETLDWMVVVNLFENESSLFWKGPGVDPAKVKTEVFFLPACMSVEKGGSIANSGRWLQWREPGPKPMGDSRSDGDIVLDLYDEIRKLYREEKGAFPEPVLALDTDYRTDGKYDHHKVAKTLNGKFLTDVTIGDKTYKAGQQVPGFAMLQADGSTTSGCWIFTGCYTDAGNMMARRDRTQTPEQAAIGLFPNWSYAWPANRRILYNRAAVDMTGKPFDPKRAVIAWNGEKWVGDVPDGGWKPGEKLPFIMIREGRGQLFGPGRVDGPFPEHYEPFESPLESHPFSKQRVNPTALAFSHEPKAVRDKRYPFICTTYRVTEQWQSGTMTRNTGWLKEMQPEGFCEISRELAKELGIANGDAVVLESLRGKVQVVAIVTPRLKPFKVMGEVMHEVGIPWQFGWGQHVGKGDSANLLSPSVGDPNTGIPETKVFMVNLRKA
# T1 sequence (Q728X1 1-260 partner): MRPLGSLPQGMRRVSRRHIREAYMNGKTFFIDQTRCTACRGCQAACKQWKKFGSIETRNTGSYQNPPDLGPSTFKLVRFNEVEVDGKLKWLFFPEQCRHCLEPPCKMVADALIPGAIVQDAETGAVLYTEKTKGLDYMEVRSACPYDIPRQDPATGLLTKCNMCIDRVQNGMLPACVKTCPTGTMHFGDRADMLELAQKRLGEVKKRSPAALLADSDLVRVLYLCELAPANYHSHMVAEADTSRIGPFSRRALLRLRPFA
# [2] = target: T1, DvH-FDH2; assay: PES/DCPIP reduction at […] nm, global fit of full progress curves; type: biochemical; conditions: in air; 1 mM PES / 93 μM DCPIP; 50 mM Tris pH 8.0; Km calculated from kcat and kcat/Km
inhibition profile [1],SMILES,Km [2] [µM]
nitrate is far less effective,O=[N+]([O-])O [nitrate],–
–,O=CO [formate],4.5 ± 0.4
